Assay [1] has as its system G19-4 anti-CD3 mAb. The assay is described as follows: ELISA of CD3-Ig fusion proteins captured by immobilized anti-CD3 mAb. Particulars: up to 100 μg/ml fusion protein. It is filed as binding. The text has this:
Transient expression in COS-7 cells was used to generate different CD3-Ig fusion proteins. The plasmids phCD3ε-Ig, and phCD3γ-Ig were transfected individually or in combinations of phCD3ε-Ig+phCD3δ-Ig and phCD3ε-Ig+phCD3γ-Ig into COS-7 by the DEAE-dextran method. Transfected cells were maintained in medium supplemented with a low concentration, 0.5%, FBS and insulin. Spent media were collected in three-day intervals up to three weeks post transfection. Fusion proteins were then purified from spent media by protein A-Sepharose chromatography. Fusion protein expression was confirmed by SDS-PAGE and ELISA using anti-CD3 mAb.
CD3-Ig fusion proteins were characterized by ELISA using a number of anti-CD3 mAbs including G19-4, OKT3, BC3, and 64.1 Anti-CD3 mAbs were immobilized to capture CD3-Ig. An antibody-horseradish peroxidase conjugate specific against human IgG […] was used to detect the binding of CD3-Ig to anti-CD3 mAbs. Like the control CD4-Ig, no binding of CD3δ-Ig to G19-4 was detectable even at 100 μg/ml of the fusion protein (FIG. 20). […] and […] saturated at 4 μg/ml and 20 μg/ml in this assay, respectively. […] In addition, binding affinities of the CD3-Ig fusion proteins to different anti-CD3 antibodies were measured by BIACORE, and the results are shown in Table IV. […]
On the technique in general: ELISA stands for enzyme-linked immunosorbent assay.

Assay [2] deals with T1, CD3ε δIg (Homo sapiens, UniProt P04234+P07766).
T1 construct: made in house; host or cells: COS-7 (transient, DEAE-dextran); purified on protein A-Sepharose
In words: BIACORE binding of CDR3 peptides. Particulars: peptides cyclized and characterized as pools of 3-5, CD3ε δhuIg impure mixture, nd = non detectable binding, read-out: Binding Affinity, CD3ε δIg. How it is done: (§1) Peptides corresponding to the entire CDR3 regions of anti-CD3 and […] mAbs were synthesized, and Tyr/Phe-Cysteine residues were added to both amino and carboxyl termini. Modifications of peptides were made by eliminating one amino acid of the CDR3 region at a time from the terminus. Peptide synthesis was carried out on solid phase by using Fmoc chemistry (HBTU/DIEA activation and TFA cleavage). Crude peptides were combined in a batch of 3-5 peptides and cyclized by air oxidation at pH 8.5. Crude cyclic peptides were purified on a reverse phase HPLC, lyophilized and characterized by analytical HPLC and mass spectroscopy.
(§2) BIACORE uses surface plasmon resonance (SPR) which occurs when surface plasmon waves are excited at a metal/liquid interface. Light is directed at, and reflected due to bimolecular interactions between analyte (in solution) and ligand (immobilized). CD3εδhuIg, CD3εεhuIg and CD28huIg were covalently immobilized on a carboxymethy dextran chip using EDC/NHS chemistry followed by blocking with ethanol amine. Peptides were dissolved in HBS buffer at pH 7.2 with or without 1% DMSO, and were allowed to pass over these fusion protein-immobilized surfaces. Non-specific binding was substrated by passing these peptides over a controlled surface prepared by immobilizing EDC/NHS alone followed by ethanolamine.

For assay [3], the target named is T2, CD28Ig (Homo sapiens, UniProt P10747).
T2 construct: human Ig (huIg) fusion partner
In words: BIACORE binding of CDR3 peptides. The conditions noted are these: peptides cyclized and characterized as pools of 3-5, nd = non detectable binding, read-out: Binding Affinity, CD28Ig. The method, then: as §1, §2

Assay [4] deals with CD4^+ T cells. In words: Proliferation of purified T cell subsets with immobilized antibodies. It is filed as cell-based, human. The conditions noted are these: antibodies immobilized on microtiter plates, 4 days. How it is done:
(§3) T cells were isolated from peripheral blood by centrifugation on “FICOLL”, followed by separation into CD4^+ or CD8^+ subsets by depletion of monocytes, B cells, NK cells, and either CD4 or CD8 cells. Cell depletion was performed using mAbs to CD14, CD20, CD11b, and CD8 or CD4 followed by removal of antibody-bound cells using magnetic beads coated with anti-mouse IgG CD4^+ or CD8^+ T cells were >95% pure after the depletion step when analyzed by flow cytometry. Cells were cultured in antibody-coated microtiter plates at 5×10^4 for 4 days, and proliferation was measured by incorporation of ^3H-thymidine for the final 12 hours of culture. Microtiter plates contained immobilized antibodies as indicated, including the control, nonbinding L20 antibody in some wells to equalize the total protein concentration for immobilization. Antibodies were immobilized by incubation at 10 μg/ml each for 18 hr at 37° C., followed by removal of unbound protein by extensive washing.

The subject of assay [5] is CD8^+ T cells. The description is as above. The format is cell-based, human. The conditions noted are these: antibodies immobilized on microtiter plates, 4 days. How it is done: as §3

These results are taken from patent US20050261478A1, “Compositions and methods for regulating lymphocyte activation” (XCYTE Therapies, Inc., priority 1998, published 2005).

Bridge positions count the residues as written; N and C are the ends. Peptide text beside a SMILES is read from it.

T1 sequence (P07766 23-126): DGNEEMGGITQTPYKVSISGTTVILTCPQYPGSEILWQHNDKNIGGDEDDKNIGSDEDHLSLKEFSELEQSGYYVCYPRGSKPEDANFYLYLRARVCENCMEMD
T1 sequence (P04234 22-100): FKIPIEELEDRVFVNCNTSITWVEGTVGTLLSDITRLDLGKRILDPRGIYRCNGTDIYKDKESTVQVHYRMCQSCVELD
T2 sequence (P10747 19-152 limits assumed): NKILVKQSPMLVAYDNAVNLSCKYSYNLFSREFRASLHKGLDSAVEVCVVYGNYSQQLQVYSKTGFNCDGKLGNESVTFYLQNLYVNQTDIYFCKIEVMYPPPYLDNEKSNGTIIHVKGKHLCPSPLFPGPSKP

In the case of “CD3ε-Ig: CD3ε extracellular domain fused to human IgG1 hinge-CH2-CH3”, the “Binding of CD3-Ig fusion protein to G19-4” value in assay [1] is recorded as “detectable”. As for `N[C@@H](Cc1ccc(O)cc1)C(=O)N[C@H]1CSSC[C@@H](C(=O)N[C@@H](Cc2ccc(O)cc2)C(=O)O)NC(=O)CNC(=O)[C@H](CC(=O)O)NC(=O)[C@H](Cc2ccc(O)cc2)NC(=O)[C@H](CC(=O)O)NC(=O)[C@H](Cc2ccc(O)cc2)NC1=O` [YCYDYDGCY (SEQ ID NO:75)] (H-YCYDYDGCY-OH; disulfide 2-8; N-terminus and C-terminus assumed), the Kd in assay [2] was determined as 10 µM. On to “YCARDSDWYFDVCW [cyclized peptide derived from CDR3 region of an anti-CD3 or anti-CD28 mAb]”, for which the Kd in assay [2] turned out to be 50 µM.

“YCGYSYYYSMDYCW [cyclized peptide derived from CDR3 region of an anti-CD3 or anti-CD28 mAb]”: the Kd in assay [3] turned out to be 1 µM. Turning to `NCCCC[C@@H]1NC(=O)[C@H](Cc2c[nH]c3ccccc23)NC(=O)[C@H](CC(=O)O)NC(=O)[C@H](Cc2ccccc2)NC(=O)[C@@H](NC(=O)[C@@H](N)Cc2ccc(O)cc2)CSSC[C@@H](C(=O)N[C@@H](Cc2ccc(O)cc2)C(=O)O)NC(=O)[C@H](CC(N)=O)NC1=O` [YCFDWKNCY (SEQ ID NO:80)] (H-YCFDWKNCY-OH; disulfide 2-8; N-terminus and C-terminus assumed), in assay [2], the Kd is 0.5 µM. For “OKT-3: MAb anti-CD3, obtained from ATCC (ATCC CRL-8001)”, the “Proliferation of CD4^+ T cells” value in assay [4] is reported as “minimal”. For the same molecule, in assay [5], the “Proliferation of CD8^+ T cells” value is given as “minimal”. “YCRSAYYDYDGIAYCW [cyclized peptide derived from CDR3 region of an anti-CD3 or anti-CD28 mAb]”: the Kd in assay [3] was 166 µM; in assay [2], 7 µM.

B1: CD3γ-Ig: CD3γ extracellular domain fused to human IgG1 hinge-CH2-CH3 (protein)
chain: QSIKGNHLVKVYDYQEDGSVLLTCDAEAKNITWFKDGKMIGFLTEDKKKWNLGSNAKDPRGMYQCKGSQNKSKPLQVYYRMCQNCIELNAATIS
modifications: left off: a dimerising Fc or GST
notes: CD3γ extracellular domain fused to human IgG1 hinge-CH2-CH3
For the molecule B1, the “Binding of CD3-Ig fusion protein to G19-4” value in assay [1] was “detectable”.
